According to US10669284B2, “Fused thiazolopyrimidine derivatives as MNKS inhibitors” (LIFEARC, priority 2015, dated 2020):

How the values were obtained:
Full-length human MNK2 = target: T1, Full-length human MNK2 (Homo sapiens, UniProt Q9HBH9, T379D); assay: MNK2 biochemical IC50 assay (Caliper Mobility Shift Assay); details: read-out: P(IC50) MNK2 (converted)
T1 construct: GST (N); purchased Carna Biosciences 02-146; host or cells: baculovirus expression system
Excerpt: (§1) The phosphorylated peptide product and unphosphorylated peptide substrate were detected using a Caliper Mobility Shift Assay using the Caliper LabChip EZ Reader II.
(§2) The Caliper Mobility Shift Assay technology is based on the utilisation of a microfluidic chip to measure the conversion of a fluorescent non-phosphorylated peptide substrate to phosphorylated product by electrophoresis separation of substrate and product and detection via Laser-induced fluorescence. The LabChip EZ Reader software calculates the relative heights of substrate and product peaks and reports the peak ratio (Product peak(P) divided by the sum of Product peak(P) and Substrate peak(S)). The percent-conversion is calculated as 100×[(P/(P+S)]. All assays were set up to run in the linear phase with a maximum of 10 percent substrate conversion.
(§3) These were N-terminal GST fusion proteins expressed in baculovirus expression system and purified by glutathione sepharose affinity chromatography. […] All other assay reagents were sourced from Sigma.
(§4) The assay incubation times were adjusted depending on the concentration of ATP used. Assays were performed at low (50 uM) and high (1 mM) ATP. The low ATP values were selected to run at Km conditions for the standard assay to allow relative potencies to be compared across other kinases. The high ATP concentration was selected as representative of cellular ATP concentrations, and for an indication of ATP competition, where a significant shift (greater than half log) in apparent potency would be expected compared to Km conditions. All IC50 values reported are the average of at least two independent experiments.
Reactions were performed as above using 10 nM MNK2 in the assay. Standard assays contained 50 uM ATP and high concentration ATP assays contained 1 mM ATP. […] All other conditions were the same.

Full-length human MNK1 = target: T2, Full-length human MNK1 (Homo sapiens, UniProt Q9BUB5, T385D); assay: MNK1 biochemical IC50 assay (Caliper Mobility Shift Assay); details: read-out: P(IC50) MNK1 (converted)
T2 construct: GST (N); purchased Carna Biosciences 02-145; host or cells: baculovirus expression system
T2 sequence (Q9BUB5 1-424 isoform Q9BUB5-2 T344D): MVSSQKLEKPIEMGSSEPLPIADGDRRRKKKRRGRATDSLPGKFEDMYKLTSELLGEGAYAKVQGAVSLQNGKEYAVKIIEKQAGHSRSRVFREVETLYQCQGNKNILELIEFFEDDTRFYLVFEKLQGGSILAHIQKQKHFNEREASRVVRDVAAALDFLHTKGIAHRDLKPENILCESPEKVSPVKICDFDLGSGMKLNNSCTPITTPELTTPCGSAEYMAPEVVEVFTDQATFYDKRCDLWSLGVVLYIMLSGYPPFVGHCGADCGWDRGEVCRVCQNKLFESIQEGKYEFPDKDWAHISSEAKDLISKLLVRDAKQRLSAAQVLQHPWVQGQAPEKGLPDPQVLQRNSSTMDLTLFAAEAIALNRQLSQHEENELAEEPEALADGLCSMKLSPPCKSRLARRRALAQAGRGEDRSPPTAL
Excerpt: as §1, §2, §3
Compounds were serially diluted in DMSO to generate a 10-point half log dilution curve with a final top concentration of 100 uM in the assay. […] Compounds were pre-incubated with enzyme and peptide in reaction buffer for 30 mins prior to addition of ATP to initiate the reaction. Final assay concentrations were 3 nM MNK1, 2 uM peptide substrate, 50 uM ATP, 50 mM Hepes pH 7.0, 0.01% BSA, 10 mM MgCl2, 1 mM dithiothrietol.
as §4

[1] = system: phosphorylation of eIF4E at ser209 in MV4.11 cell line; assay: MNK cellular activity phospho-eIF4E detection assay (Alphascreen Surefire); type: cell-based; details: Homo sapiens; MV4.11 cell line, phospho-eIF4E (ser209) Alphascreen Surefire; read-out: P(IC50) elF4E (converted)
Description: The assay detection is based on the formation of sandwich antibody complexes coupled to donor and acceptor beads. Excitation at 680 nm causes the transfer of a singlet oxygen species between donor and acceptor beads when they are in close proximity by binding to the analyte ([…]), which results in the emission of light at 520-620 nm.
Cells were then lysed and the Alphascreen Surefire protocol followed according to manufacturer's recommendations. 8 ul Acceptor beads (1:50 dilution in kit activation buffer) was added to lysate, shaken 150 rpm for 2 min and incubated for 1.5 hr at room temperature. 3 ul Donor beads (1:20 dilution in kit dilution buffer) were then added, shaken 150 rpm for 2 min and incubated for a further 1.5 hr at room temperature after which the plates were read on Pherastar FS using Alphascreen optic module.
Data were normalised relative to untreated DMSO only controls and curves repeated in duplicate within experiments. Data reported are averages of at least 2 independent experiments.

T1 sequence (Q9HBH9 whole entry T379D): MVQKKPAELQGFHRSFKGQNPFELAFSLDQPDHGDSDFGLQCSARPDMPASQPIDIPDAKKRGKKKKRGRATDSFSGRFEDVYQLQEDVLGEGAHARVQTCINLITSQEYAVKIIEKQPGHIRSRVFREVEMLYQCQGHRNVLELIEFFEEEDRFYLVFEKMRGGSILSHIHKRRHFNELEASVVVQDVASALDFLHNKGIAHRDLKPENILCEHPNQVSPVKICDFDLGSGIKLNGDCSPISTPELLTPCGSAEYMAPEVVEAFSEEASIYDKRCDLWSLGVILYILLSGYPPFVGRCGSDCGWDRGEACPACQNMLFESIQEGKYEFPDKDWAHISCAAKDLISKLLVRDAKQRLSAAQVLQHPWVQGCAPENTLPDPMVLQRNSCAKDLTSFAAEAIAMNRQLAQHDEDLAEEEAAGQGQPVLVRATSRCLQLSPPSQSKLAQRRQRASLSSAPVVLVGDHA

IC50 (Full-length human MNK2) [nM] | IC50 (Full-length human MNK1) [nM] | IC50 [1] [nM] | SMILES
5.01 | 12.6 | 15.8 | O=C(NC1CC1)c1nc2c(N3CCc4ccccc43)ncnc2s1 [Example 99, N-cyclopropyl-7-indolin-1-yl-thiazolo[5,4-d]pyrimidine-2-carboxamide]
794 | 794 | 251 | CN(C)CCCNC(=O)c1nc2c(Nc3ccc(F)cc3O[C@H]3CCCC[C@@H]3O)ncnc2s1 [Example 19, N-[3-(dimethylamino)propyl]-7-[4-fluoro-2-[(1S,2S)-2-hydroxycyclohexoxy]anilino]thiazolo[5,4-d]pyrimidine-2-carboxamide]
3.16 | 2.51 | 31.6 | O=C(NCC1CCNCC1)c1nc2c(N3CC(CCO)c4cc(F)ccc43)ncnc2s1 (stereo not drawn) [Example 139]
79.4 | 100 | 79.4 | CC(C)Oc1cc(F)ccc1Nc1ncnc2sc(C(=O)NC3CCOCC3)nc12 [Example 33, 7-{[4-fluoro-2-(propan-2-yloxy)phenyl]amino}-N-(tetrahydro-2H-pyran-4-yl)[1,3]thiazolo[5,4-d]pyrimidine-2-carboxamide]
251 | 398 | 501 | CN1CCN(C(=O)c2nc3c(N4CCc5ccccc54)ncnc3s2)CC1 [Example 96, (7-indolin-1-ylthiazolo[5,4-d]pyrimidin-2-yl)-(4-methylpiperazin-1-yl)methanone]
3.16 | 3.16 | 10 | O=C(NCCN1CCNCC1)c1nc2c(N3CCc4cc(F)ccc43)ncnc2s1 [Example 79, 7-(5-fluoroindolin-1-yl)-N-(2-piperazin-1-ylethyl)thiazolo[5,4-d]pyrimidine-2-carboxamide]
251 | 316 | 316 | CC(C)Oc1ncccc1Nc1ncnc2sc(C(=O)NCC3CCNCC3)nc12 [Example 55, 7-[(2-Isopropoxy-3-pyridyl)amino]-N-(4-piperidylmethyl)thiazolo[5,4-d]pyrimidine-2-carboxamide]
100 | 100 | 158 | CN(C)CCCNC(=O)c1nc2c(Nc3ccc(F)cc3O[C@@H]3CCCOC3)ncnc2s1 [Example 16, N-[3-(dimethylamino)propyl]-7-[4-fluoro-2-[(3R)-tetrahydropyran-3-yl]oxy-anilino]thiazolo[5,4-d]pyrimidine-2-carboxamide]
3.16 | 3.98 | 3.98 | CN1CCC(NC(=O)c2nc3c(N4CCc5cc(F)ccc54)ncnc3s2)CC1 [Example 67, 7-(5-fluoroindolin-1-yl)-N-(1-methyl-4-piperidyl)thiazolo[5,4-d]pyrimidine-2-carboxamide]
63.1 | 63.1 | 25.1 | CN1CCN(CCC2CN(c3ncnc4sc(C(=O)NC5CCOCC5)nc34)c3ccc(F)cc32)CC1 (stereo not drawn) [Example 150, 7-[5-fluoro-3-[2-(4-methylpiperazin-1-yl)ethyl]indolin-1-yl]-N-tetrahydropyran-4-yl-thiazolo[5,4-d]pyrimidine-2-carboxamide]
25.1 | 31.6 | 39.8 | CC1Cc2ccccc2N1c1ncnc2sc(C(=O)NCC3CCNCC3)nc12 (stereo in doubt) [Example 134, 7-[(2R)-2-methylindolin-1-yl]-N-(4-piperidyl-methyl)thiazolo[5,4-d]pyrimidine-2-carboxamide]
100 | 79.4 | 200 | O=C(NCC1CCNCC1)c1nc2c(Nc3ccc(F)cc3O[C@H]3CCOC3)ncnc2s1 [Example 54, 7-[4-fluoro-2-[(3S)-tetrahydrofuran-3-yl]oxy-anilino]-N-(4-piperidylmethyl)thiazolo[5,4-d]pyrimidine-2-carboxamide]
15.8 | 20 | 25.1 | C[C@H]1Cc2ccccc2N1c1ncnc2sc(C(=O)NC3CCNCC3)nc12 [Example 132, 7-[(2S)-2-methylindolin-1-yl]-N-(4-piperidyl) thiazolo[5,4-d]pyrimidine-2-carboxamide]
31.6 | 50.1 | 50.1 | O=C(NC1CCOCC1)c1nc2c(-n3ccc4ccccc43)ncnc2s1 [Example 117, 7-Indol-1-yl-N-tetrahydropyran-4-yl-thiazolo[5,4-d]pyrimidine-2-carboxamide]
3.98 | 10 | 5.01 | CC1(C)CN(c2ncnc3sc(C(=O)NCCCO)nc23)c2ccccc21 [Example 163]
3.16 | 5.01 | 5.01 | CNCCCNC(=O)c1nc2c(N3CC(C)(C)c4ccccc43)ncnc2s1 [Example 159]
63.1 | 158 | 79.4 | O=C(Nc1ccc(Nc2ncnc3sc(C(=O)NCC4CCNCC4)nc23)cc1)Nc1cccc(C(F)(F)F)c1 [Example 49, N-(4-piperidylmethyl)-7-[4-[[3-(trifluoromethyl)phenyl]carbamoylamino]anilino]thiazolo[5,4-d]pyrimidine-2-carboxamide]
100 | 126 | 501 | O=C(NCC1CCNCC1)c1nc2c(N3CCc4cc(C(F)(F)F)ccc43)ncnc2s1 [Example 145]
316 | 631 | 316 | O=C(NCC1CCNCC1)c1nc2c(Nc3ccccc3-c3ccco3)ncnc2s1 [Example 62, 7-[2-(2-furyl)anilino]-N-(4-piperidylmethyl)thiazolo[5,4-d]pyrimidine-2-carboxamide]
126 | 200 | 316 | O=C(NC1CCOCC1)c1nc2c(N3CCc4cc(C(F)(F)F)ccc43)ncnc2s1 [Example 112, N-(tetrahydro-2H-pyran-4-yl)-7-(5-(trifluoromethyl)indolin-1-yl)thiazolo[5,4-d]pyrimidine-2-carboxamide]
3.98 | 6.31 | 7.94 | O=C(NCC1CCNCC1)c1nc2c(N3CCc4ccccc43)ncnc2s1 [Example 94, 7-Indolin-1-yl-N-(4-piperidylmethyl)thiazolo[5,4-d]pyrimidine-2-carboxamide]
794 | 1000 | 794 | O=C(NCC1CCNCC1)c1nc2c(N3CCOc4cc(F)ccc43)ncnc2s1 [Example 56, 7-(7-fluoro-2,3-dihydro-1,4-benzoxazin-4-yl)-N-(4-piperidylmethyl)thiazolo[5,4-d]pyrimidine-2-carboxamide]
10 | 10 | 63.1 | O=C(NCC1CCOCC1)c1nc2c(N3CCc4ccccc43)ncnc2s1 [Example 103, 7-indolin-1-yl-N-(tetrahydropyran-4-ylmethyl)thiazoto[5,4-d]pyrimidine-2-carboxamide]
251 | 251 | 251 | CN1CCN(c2ncnc3sc(C(=O)NCC4CCNCC4)nc23)c2ccc(F)cc21 [Example 57, 7-(6-fluoro-4-methyl-2,3-dihydroquinoxalin-1-yl)-N-(4-piperidylmethyl)thiazolo[5,4-d]pyrimidine-2-carboxamide]
79.4 | 79.4 | 100 | O=C(NC1CCOCC1)c1nc2c(N3CC(CCN4CCOCC4)c4ccccc43)ncnc2s1 (stereo not drawn) [Example 154, 7-[3-(2-morpholinoethyl)indolin-1-yl]-N-tetrahydropyran-4-yl-thiazolo[5,4-d]pyrimidine-2-carboxamide]

SMILES | IC50 (Full-length human MNK2) [nM] | IC50 (Full-length human MNK1) [nM] | IC50 [1] [nM]
CC(C)Oc1cc(F)ccc1Nc1ncnc2sc(C(=O)NC3CC4CCC(C3)N4)nc12 (stereo not drawn) [Example 5, N-(8-azabicyclo[3.2.1]octan-3-yl)-7-(4-fluoro-2-isopropoxy-anilino)thiazolo[5,4-d]pyrimidine-2-carboxamide] | 79.4 | 158 | 100
